Measured values: patent US9388215B2, “Compositions and methods of using islet neogenesis peptides and analogs thereof” (SHENZHEN HIGHTIDE BIOPHARMACEUTICAL, LTD., priority 2013, dated 2016)

How the values were obtained:
normal C57BL/6J mice = experiment: Induction of small β-cell clusters in normal C57BL/6J mice (islet size distribution); assay type: in vivo, mouse
Procedure: After a 1-week acclimation, C57BL/6J female mice were randomly divided into 4 groups. The two control groups received either 10 mL/kg sterile normal saline (n=4) or scrambled peptide (Peptide 3, 25 mg/kg) (n=5) via subcutaneous injection for 10 days. The other two groups received INGAP-PP (Peptide 1) or INGAP-PP analog Peptide 7 at a dose of 25 mg/kg per day respectively (n=7 per group) for the same period. Body weight and 6 hour fasting blood glucose were measured before treatment and after the last dosing of treatment. Plasma and pancreatic insulin were also measured at the end of the study. On day 11, the pancreas was removed from each animal, cleared of fat and lymph nodes, weighed, and fixed in 10% neutral buffered formalin (NBF) for no longer than 24 hours before processing for morphometric analysis.
Immunohistochemistry analysis was used to determine pancreatic islet size distribution.

[1] = tested on: STZ induced diabetic mice; experiment: Efficacy in streptozotocin (STZ) induced diabetic mice model; assay type: in vivo, mouse
Procedure: After acclimatization in the animal facility for one week, 6-8 weeks old C57BL/6J mice were administered low dose STZ at 40 mg/kg in citrate buffer for 5 consecutive days to establish a T1D animal model. Mice with blood glucose greater than 16.7 mmol/L at 5 days post last STZ injection were included in the study. These mice were then treated with INGAP-PP (Peptide 1) or Peptide 7 at the doses of 5 mg/kg (2.5 mg/kg, bid (twice a day)) or 25 mg/kg (12.5 mg/kg, bid) for 20 days before sacrifices. Two additional groups of diabetic mice were administered either saline or a peptide (Peptide 3) composed of a scrambled sequence of amino acids from Peptide 1 as control groups. Blood glucose and insulin levels were measured, and 20 days post the last dosing of test agents, an oral glucose tolerance test (OGTT) was performed in 6 hour fasted animals to determine the effect of Peptide 1 and Peptide 7. Blood samples obtained from the tail cut for glucose determination were detected with an ACCU-CHEK™ glucometer (Roche, ACCU-CHEK® Active), and insulin levels were determined with Rat/Mouse Insulin Elisa kit (Millipore, Billerica, Mass. USA). For the OGTT, after the measurement of the basal glucose concentration (T=−30 min), mice received an oral glucose challenge at 2 g/kg and glucose values were determined by glucometer at 0, 15, 30, 60, 90 and 120 min.

ARIP cells = experiment: ARIP cell proliferation (BrdU ELISA / CellTiter-Glo); assay type: cell-based, rat; settings: 100 nM peptide; compared to INGAP scrambled peptide and INGAP-PP; FIG. 1
Procedure: To measure cell proliferation, a bromodeoxyuridine (BrdU) ELISA assay was performed. Briefly, ARIP cells (ATCC (American Type Culture Collection), Manassas Va. USA), a rat pancreatic ductal cell line, were cultured in F-12K medium (Gibco-BRL, Gaithersburg, Md., USA) containing 10% fetal bovine serum (FBS; HyClone, Thermo Fisher Scientific Inc.; Waltham Mass. USA), 100 μg/ml streptomycin and 100 μg/ml penicillin in a cell incubator. ARIP cells were seeded into 96-well culture plates at 8000 or 0 (as blank control) cells/well in a volume of 50 μl cell culture medium and incubated overnight for the following experiments. On the second day, after replacing the medium with medium without serum, 50 μl serum-free cell culture medium containing test peptides at a series concentrations (final concentrations were 10 μM, 5 μM, 1 μM, 500 nM, 100 nM, 50 nM, 10 nM and 1 nM) were added to seeded cells. Medium without compound was added to negative control and background control wells. […] The absorbance at 450 nm (reference wavelength 690 nm) on an EnVision™ plate reader (Perkin Elmer, Boston Mass.) within 5 min after adding the stop solution was measured.
To test for cell viability, a CellTiter-Glo™ (CTG) assay (Promega, Madison Wis.) was performed. […] Luminescence signal was quantified on an EnVision™ plate reader after a 10 minute incubation at room temperature.

[2] = Peptide stability in culture medium (F-12K, 37° C., HPLC); assay type: physicochemical; settings: F-12K medium, 0.25 mg/mL, 0-72 hours, FIG. 2, FIG. 11
Procedure: To determine the stability of peptides in culture medium, a certain amount of selected peptides was accurately weighed and dissolved in distilled water to 5 mg/mL as a stock solution. The stock solution was diluted to 0.25 mg/mL with F-12K medium (Gibco-BRL, Gaithersburg, Md., USA) as working solution. A volume of 100 μL of each working solution was transferred into individual sample vials. The sample vials were incubated in a 37° C. incubator for 0, 24, 48 and 72 hours before being analyzed and quantitated by HPLC. […]

With “H-IGLHDPSHGTLPAGS-OH [Peptide 7, H-IGLHDPSHGTLPAGS-OH]” the “number of islets, islet size (Log [μm^2]) ranging from 2.1 to 0.7” value (normal C57BL/6J mice; normal female C57BL/6J mice, 25 mg/kg per day, 10 days, versus naive/control group, FIG. 7) was “numbers increased significantly”, the “effect on body weight, blood glucose, plasma insulin, pancreas insulin, pancreas weight” value (normal C57BL/6J mice; normal mice, 25 mg/kg per day sc for 10 days, compared to saline group) was “did not affect body weight, blood glucose, plasma insulin, pancreas insulin, or pancreas weight” and the “effect on body weight or pancreas weight” value ([1]; 5 mg/kg or 25 mg/kg for 20 days) was “did not affect body weight or pancreas weight”. For the same substance, the “plasma insulin levels vs saline controls” value ([1]; 25 mg/kg dose group, end of the 20-day period, FIG. 6B) was “significantly different from saline controls and almost restored to the level of the naive group”, the “glucose tolerance (OGTT, AUC of glucose)” value ([1]; FIG. 6C) was “improved glucose tolerance” and the “blood glucose levels vs saline control group” value ([1]; day 21 of treatment, FIG. 6A) was “Significant differences in blood glucose levels”. For the same substance, the “percentage increase in cell number (ARIP cell proliferation)” value (ARIP cells) was “significantly higher percentage increase in cell number” and the “stability in culture medium” value [2] was “significantly more stable than INGAP-PP peptide in culture medium”.
